Legend:
Type in all cases: functional
SR = assay: Cytotoxicity against human SR cells after 48 hrs by SRB assay
K562 = assay: Cytotoxicity against human K562 cells after 48 hrs by SRB assay; conditions: K562, 48 h
EKVX = assay: Cytotoxicity against human EKVX cells after 48 hrs by SRB assay
HOP-62 = assay: Cytotoxicity against human HOP62 cells after 48 hrs by SRB assay; conditions: HOP-62, 48 h
NCI-H226 = assay: Cytotoxicity against human NCI-H226 cells after 48 hrs by SRB assay; conditions: NCI-H226, 48 h
BT-549 = assay: Cytotoxicity against human BT549 cells after 48 hrs by SRB assay; conditions: BT-549, 48 h
COLO 205 = assay: Cytotoxicity against human COLO205 cells after 48 hrs by SRB assay; conditions: COLO 205, 48 h
SW-620 = assay: Cytotoxicity against human SW620 cells after 48 hrs by SRB assay; conditions: SW-620, 48 h
SF-539 = assay: Cytotoxicity against human SF539 cells after 48 hrs by SRB assay; conditions: SF-539, 48 h
SNB-75 = assay: Cytotoxicity against human SNB75 cells after 48 hrs by SRB assay; conditions: SNB-75, 48 h
U-251 = assay: Cytotoxicity in human U251 cells after 48 hrs by SRB assay; conditions: U-251, 48 h
LOX IMVI = assay: Cytotoxicity in human LOXIMVI cells after 48 hrs by SRB assay
Malme-3M = assay: Cytotoxicity against human MALME-3M cells after 48 hrs by SRB assay
UACC-62 = assay: Cytotoxicity against human UACC62 cells after 48 hrs by SRB assay; conditions: UACC-62, 48 h
IGROV-1 = assay: Cytotoxicity against human IGROV1 cells after 48 hrs by SRB assay; conditions: IGROV-1, 48 h
OVCAR-5 = assay: Cytotoxicity against human OVCAR5 cells after 48 hrs by SRB assay; conditions: OVCAR-5, 48 h
NCI/ADR-RES = assay: Cytotoxicity against human NCI/ADR-RES cells after 48 hrs by SRB assay
786-0 = assay: Cytotoxicity against human 786-0 cells after 48 hrs by SRB assay; conditions: 786-0, 48 h
A498 = assay: Cytotoxicity against human A498 cells after 48 hrs by SRB assay; conditions: A498, 48 h
RXF 393 = assay: Cytotoxicity against human RXF393 cells after 48 hrs by SRB assay; conditions: RXF 393, 48 h
SN12C = assay: Cytotoxicity against human SN12C cells after 48 hrs by SRB assay
TK-10 = assay: Cytotoxicity against human TK10 cells after 48 hrs by SRB assay; conditions: TK-10, 48 h
MCF7 = assay: Cytotoxicity against human MCF7 cells after 48 hrs by SRB assay; conditions: MCF7, 48 h
MDA-MB-231 = assay: Cytotoxicity against human MDA-MB-231 cells after 48 hrs by SRB assay; conditions: MDA-MB-231, 48 h
[1] = Cytotoxicity against human Hs 578T cells after 48 hrs by SRB assay
T47D = assay: Cytotoxicity against human T47D cells after 48 hrs by SRB assay
MDA-MB-468 = assay: Cytotoxicity against human MDA-MB-468 cells after 48 hrs by SRB assay; conditions: MDA-MB-468, 48 h
HCT-116 = assay: Cytotoxicity against human HCT116 cells after 48 hrs by SRB assay; conditions: HCT-116, 48 h
M14 = assay: Cytotoxicity against human M14 cells after 48 hrs by SRB assay; conditions: M14, 48 h
MDA-MB-435 = assay: Cytotoxicity against human MDA-MB-435 cells after 48 hrs by SRB assay; conditions: MDA-MB-435, 48 h
SK-OV-3 = assay: Cytotoxicity against human SKOV3 cells after 48 hrs by SRB assay; conditions: SK-OV-3, 48 h
CAKI-1 = assay: Cytotoxicity against human Caki1 cells after 48 hrs by SRB assay; conditions: CAKI-1, 48 h
[2] = Cytotoxicity against human breast cancer cell after 48 hrs by SRB assay; conditions: Cancer cell lines
HT-29 = assay: Cytotoxicity against human HT-29 cells after 48 hrs by SRB assay; conditions: HT-29, 48 h
[3] = read-out: LC50 (the source's name)

`Cn1c2ccccc2c2c3nc(N)[nH]c(=O)c3c3c4ccccc4n(C)c3c21` gave a GI50 (SR) of 4.61 µM, a TGI (SR) of 41.8 µM and a CC50 (SR; [3]) of over 100 µM. For the same molecule, the GI50 (K562) was 3.93 µM, the TGI (K562) was 40.3 µM and the CC50 (K562; [3]) was over 100 µM. For the same molecule, the GI50 (EKVX) was 12.7 µM, the TGI (EKVX) was over 100 µM and the CC50 (EKVX; [3]) was over 100 µM. It also gave a GI50 (HOP-62) of 41 µM, a TGI (HOP-62) of over 100 µM and a CC50 (HOP-62; [3]) of over 100 µM. For the same molecule, the GI50 (NCI-H226) was 30.6 µM, the TGI (NCI-H226) was over 100 µM and the CC50 (NCI-H226; [3]) was over 100 µM. It also gave a GI50 (BT-549) of 16.3 µM, a TGI (BT-549) of over 100 µM and a CC50 (BT-549; [3]) of over 100 µM. The GI50 (COLO 205) was 7.99 µM, the TGI (COLO 205) was 39.4 µM and the CC50 (COLO 205; [3]) was over 100 µM. For the same molecule, the GI50 (SW-620) was 4.05 µM, the TGI (SW-620) was over 100 µM and the CC50 (SW-620; [3]) was over 100 µM. For the same molecule, the GI50 (SF-539) was 18.4 µM, the TGI (SF-539) was 56.6 µM and the CC50 (SF-539; [3]) was over 100 µM. It also gave a GI50 (SNB-75) of 66.6 µM, a TGI (SNB-75) of over 100 µM and a CC50 (SNB-75; [3]) of over 100 µM. For the same molecule, the GI50 (U-251) was 6.38 µM, the TGI (U-251) was over 100 µM and the CC50 (U-251; [3]) was over 100 µM. The GI50 (LOX IMVI) was 4.7 µM, the TGI (LOX IMVI) was 31.1 µM and the CC50 (LOX IMVI; [3]) was over 100 µM. It also gave a GI50 (Malme-3M) of 14.5 µM, a TGI (Malme-3M) of 74.8 µM and a CC50 (Malme-3M; [3]) of over 100 µM. The GI50 (UACC-62) was 16.1 µM, the TGI (UACC-62) was over 100 µM and the CC50 (UACC-62; [3]) was over 100 µM. The GI50 (IGROV-1) was 31.3 µM, the TGI (IGROV-1) was over 100 µM and the CC50 (IGROV-1; [3]) was over 100 µM. The GI50 (OVCAR-5) was 52.3 µM, the TGI (OVCAR-5) was over 100 µM and the CC50 (OVCAR-5; [3]) was over 100 µM. For the same molecule, the GI50 (NCI/ADR-RES) was 3.87 µM, the TGI (NCI/ADR-RES) was over 100 µM and the CC50 (NCI/ADR-RES; [3]) was over 100 µM. For the same molecule, the GI50 (786-0) was 7.7 µM, the TGI (786-0) was 54.4 µM and the CC50 (786-0; [3]) was over 100 µM. The GI50 (A498) was 27.4 µM, the TGI (A498) was 97.1 µM and the CC50 (A498; [3]) was over 100 µM. For the same molecule, the GI50 (RXF 393) was 7.47 µM, the TGI (RXF 393) was 37.6 µM and the CC50 (RXF 393; [3]) was over 100 µM. It also gave a GI50 (SN12C) of 6.49 µM, a TGI (SN12C) of over 100 µM and a CC50 (SN12C; [3]) of over 100 µM. The GI50 (TK-10) was 7.14 µM, the TGI (TK-10) was over 100 µM and the CC50 (TK-10; [3]) was over 100 µM. For the same molecule, the GI50 (MCF7) was 2.13 µM, the TGI (MCF7) was 44.1 µM and the CC50 (MCF7; [3]) was over 100 µM. The GI50 (MDA-MB-231) was 93 µM, the TGI (MDA-MB-231) was over 100 µM and the CC50 (MDA-MB-231; [3]) was over 100 µM. It also gave a GI50 [1] of 10.2 µM, a TGI [1] of over 100 µM and a CC50 [1, 3] of over 100 µM. For the same molecule, the GI50 (T47D) was 5.1 µM, the TGI (T47D) was over 100 µM and the CC50 (T47D; [3]) was over 100 µM. For the same molecule, the GI50 (MDA-MB-468) was 21.7 µM, the TGI (MDA-MB-468) was 75.1 µM and the CC50 (MDA-MB-468; [3]) was over 100 µM. The GI50 (HCT-116) was 3.2 µM, the TGI (HCT-116) was 35.3 µM and the CC50 (HCT-116; [3]) was over 100 µM. The GI50 (M14) was 3.36 µM, the TGI (M14) was 89.6 µM and the CC50 (M14; [3]) was over 100 µM. It also gave a GI50 (MDA-MB-435) of 3.39 µM, a TGI (MDA-MB-435) of 22.3 µM and a CC50 (MDA-MB-435; [3]) of over 100 µM. The GI50 (SK-OV-3) was 3.56 µM, the TGI (SK-OV-3) was over 100 µM and the CC50 (SK-OV-3; [3]) was over 100 µM. For the same molecule, the GI50 (CAKI-1) was 1.33 µM, the TGI (CAKI-1) was over 100 µM and the CC50 (CAKI-1; [3]) was over 100 µM. For the same molecule, the GI50 [2] was 2.13 µM, the TGI [2] was 44.1 µM and the CC50 [2, 3] was over 100 µM. It also gave a GI50 (HT-29) of 3.98 µM, a TGI (HT-29) of 66.1 µM and a CC50 (HT-29; [3]) of over 100 µM.
